Experimental data taken from ChEMBL document CHEMBL4325871 (Eur J Med Chem, 2019).
Calls of active or inactive are those of the source. The rule behind the calls is not given here.

Assays:
[1] = biological target: T1, Serine/threonine-protein kinase Chk1 (Homo sapiens) (UniProt O14757); test: Inhibition of hydroxyurea-induced CHK1 phosphorylation at S317 residue in human HCT116 cells at 20 uM treated for 8 hrs starting from 24 hrs post hydroxyurea addition by Western blot analysis; type: cell-based
T1 sequence (whole entry): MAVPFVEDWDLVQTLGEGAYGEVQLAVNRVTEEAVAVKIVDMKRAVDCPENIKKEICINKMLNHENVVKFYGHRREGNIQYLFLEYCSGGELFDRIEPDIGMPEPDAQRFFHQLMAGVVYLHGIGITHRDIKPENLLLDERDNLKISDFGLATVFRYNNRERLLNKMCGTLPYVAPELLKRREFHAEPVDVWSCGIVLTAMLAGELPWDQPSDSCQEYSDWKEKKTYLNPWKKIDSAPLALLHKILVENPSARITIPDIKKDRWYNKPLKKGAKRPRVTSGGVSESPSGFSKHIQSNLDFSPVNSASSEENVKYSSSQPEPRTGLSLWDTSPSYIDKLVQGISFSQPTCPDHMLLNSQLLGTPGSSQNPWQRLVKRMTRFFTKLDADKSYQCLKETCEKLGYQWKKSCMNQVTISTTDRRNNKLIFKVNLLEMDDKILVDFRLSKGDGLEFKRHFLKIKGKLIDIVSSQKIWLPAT

[2] = biological target: T1, Serine/threonine-protein kinase Chk1 (Homo sapiens); test: Inhibition of CHK1 phosphorylation at S317 residue in human HCT116 cells at 20 uM after 8 hrs by Western blot analysis; type: cell-based
[3] = biological target: T1, Serine/threonine-protein kinase Chk1 (Homo sapiens); test: Inhibition of CHK1 phosphorylation at S345 residue in human HCT116 cells at 20 uM after 8 hrs by Western blot analysis; type: cell-based
[4] = biological target: Tyrosine-protein kinase ABL2 (Homo sapiens) (UniProt P42684); test: Inhibition of human ABL2 assessed as residual activity at 1 uM using EAIYAAPFAKKK as substrate by [gamma-33P]-ATP assay relative to control
[5] = biological target: Calcium/calmodulin-dependent protein kinase type 1D (Homo sapiens) (UniProt Q8IU85); test: Inhibition of human CAMK1D assessed as residual activity at 1 uM using KKALRRQETVDAL as substrate by [gamma-33P]-ATP assay relative to control
[6] = biological target: Calcium/calmodulin-dependent protein kinase type IV (Homo sapiens) (UniProt Q16566); test: Inhibition of human CAMK4 assessed as residual activity at 1 uM using KKLNRTLSFAEPG as substrate by [gamma-33P]-ATP assay relative to control
[7] = biological target: Serine/threonine-protein kinase/endoribonuclease IRE2 (Homo sapiens) (UniProt Q76MJ5); test: Inhibition of human ERN2 assessed as residual activity at 1 uM using MBP as substrate by [gamma-33P]-ATP assay relative to control
[8] = biological target: Inhibitor of nuclear factor kappa-B kinase subunit alpha (Homo sapiens) (UniProt O15111); test: Inhibition of human IKKalpha assessed as residual activity at 1 uM using KKKKERLLDDRHDSGLDSMKDEE as substrate by [gamma-33P]-ATP assay relative to control
[9] = biological target: Serine/threonine-protein kinase PLK3 (Homo sapiens) (UniProt Q9H4B4); test: Inhibition of human PLK3 assessed as residual activity at 1 uM using casein as substrate by [gamma-33P]-ATP assay relative to control
[10] = biological target: Dual serine/threonine and tyrosine protein kinase (Homo sapiens) (UniProt Q6XUX3); test: Inhibition of human RIPK5 assessed as residual activity at 1 uM using MBP as substrate by [gamma-33P]-ATP assay relative to control
[11] = biological target: Serine/threonine-protein kinase Sgk1 (Homo sapiens) (UniProt O00141); test: Inhibition of human SGK1 assessed as residual activity at 1 uM using KGSGSGRPRTSSFAEG as substrate by [gamma-33P]-ATP assay relative to control
[12] = biological target: Activated CDC42 kinase 1 (Homo sapiens) (UniProt Q07912); test: Inhibition of human ACK1 assessed as residual activity at 1 uM using EAIYAAPFAKKK as substrate by [gamma-33P]-ATP assay relative to control
[13] = biological target: Calcium/calmodulin-dependent protein kinase kinase 2 (Homo sapiens) (UniProt Q96RR4); test: Inhibition of human CAMKK2 assessed as residual activity at 1 uM using MBP as substrate by [gamma-33P]-ATP assay relative to control
[14] = biological target: Death-associated protein kinase 1 (Homo sapiens) (UniProt P53355); test: Inhibition of human DAPK1 assessed as residual activity at 1 uM using KKLNRTLSFAEPG as substrate by [gamma-33P]-ATP assay relative to control
[15] = biological target: Ephrin type-A receptor 6 (Homo sapiens) (UniProt Q9UF33); test: Inhibition of human EPHA6 assessed as residual activity at 1 uM using poly[Glu:Tyr] (4:1) as substrate by [gamma-33P]-ATP assay relative to control
[16] = biological target: Serine/threonine-protein kinase/endoribonuclease IRE1 (Homo sapiens) (UniProt O75460); test: Inhibition of human ERN1 assessed as residual activity at 1 uM using MBP as substrate by [gamma-33P]-ATP assay relative to control
[17] = biological target: Myosin light chain kinase, smooth muscle (Homo sapiens) (UniProt Q15746); test: Inhibition of human MLCK assessed as residual activity at 1 uM using KKLNRTLSFAEPG as substrate by [gamma-33P]-ATP assay relative to control
[18] = biological target: Myosin-IIIb (Homo sapiens) (UniProt Q8WXR4); test: Inhibition of human MYO3B assessed as residual activity at 1 uM using MBP as substrate by [gamma-33P]-ATP assay relative to control
[19] = biological target: Serine/threonine-protein kinase Nek6 (Homo sapiens, UniProt Q9HC98); test: Inhibition of human NEK6 assessed as residual activity at 1 uM using casein as substrate by [gamma-33P]-ATP assay relative to control
[20] = biological target: Phosphorylase b kinase gamma catalytic chain, liver/testis isoform (Homo sapiens) (UniProt P15735); test: Inhibition of human PHKgamma2 assessed as residual activity at 1 uM using MBP as substrate by [gamma-33P]-ATP assay relative to control
[21] = biological target: Protein kinase C theta type (Homo sapiens) (UniProt Q04759); test: Inhibition of human PKCtheta assessed as residual activity at 1 uM using Histone H1 as substrate by [gamma-33P]-ATP assay relative to control
[22] = biological target: Serine/threonine-protein kinase N3 (Homo sapiens) (UniProt Q6P5Z2); test: Inhibition of human PKN3 assessed as residual activity at 1 uM using KKLNRTLSVA as substrate by [gamma-33P]-ATP assay relative to control
[23] = biological target: Proto-oncogene tyrosine-protein kinase receptor Ret (Homo sapiens) (UniProt P07949); test: Inhibition of human RET assessed as residual activity at 1 uM using KKKVSRSGLYRSPSMPENLNRPR as substrate by [gamma-33P]-ATP assay relative to control
[24] = biological target: Serine/threonine-protein kinase 16 (Homo sapiens) (UniProt O75716); test: Inhibition of human STK16 assessed as residual activity at 1 uM using MBP as substrate by [gamma-33P]-ATP assay relative to control
Serine/threonine-protein kinase 16 (Homo sapiens), sequence (O75716 whole entry): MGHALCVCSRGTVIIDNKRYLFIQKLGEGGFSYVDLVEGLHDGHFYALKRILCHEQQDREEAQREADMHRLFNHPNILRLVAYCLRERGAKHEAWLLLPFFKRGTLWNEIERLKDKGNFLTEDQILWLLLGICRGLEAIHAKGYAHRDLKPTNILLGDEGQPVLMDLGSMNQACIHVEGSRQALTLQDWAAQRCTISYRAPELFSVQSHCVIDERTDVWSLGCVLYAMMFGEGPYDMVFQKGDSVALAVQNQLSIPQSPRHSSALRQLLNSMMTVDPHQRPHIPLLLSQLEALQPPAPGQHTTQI

Myosin light chain kinase, smooth muscle (Homo sapiens), sequence (Q15746 whole entry): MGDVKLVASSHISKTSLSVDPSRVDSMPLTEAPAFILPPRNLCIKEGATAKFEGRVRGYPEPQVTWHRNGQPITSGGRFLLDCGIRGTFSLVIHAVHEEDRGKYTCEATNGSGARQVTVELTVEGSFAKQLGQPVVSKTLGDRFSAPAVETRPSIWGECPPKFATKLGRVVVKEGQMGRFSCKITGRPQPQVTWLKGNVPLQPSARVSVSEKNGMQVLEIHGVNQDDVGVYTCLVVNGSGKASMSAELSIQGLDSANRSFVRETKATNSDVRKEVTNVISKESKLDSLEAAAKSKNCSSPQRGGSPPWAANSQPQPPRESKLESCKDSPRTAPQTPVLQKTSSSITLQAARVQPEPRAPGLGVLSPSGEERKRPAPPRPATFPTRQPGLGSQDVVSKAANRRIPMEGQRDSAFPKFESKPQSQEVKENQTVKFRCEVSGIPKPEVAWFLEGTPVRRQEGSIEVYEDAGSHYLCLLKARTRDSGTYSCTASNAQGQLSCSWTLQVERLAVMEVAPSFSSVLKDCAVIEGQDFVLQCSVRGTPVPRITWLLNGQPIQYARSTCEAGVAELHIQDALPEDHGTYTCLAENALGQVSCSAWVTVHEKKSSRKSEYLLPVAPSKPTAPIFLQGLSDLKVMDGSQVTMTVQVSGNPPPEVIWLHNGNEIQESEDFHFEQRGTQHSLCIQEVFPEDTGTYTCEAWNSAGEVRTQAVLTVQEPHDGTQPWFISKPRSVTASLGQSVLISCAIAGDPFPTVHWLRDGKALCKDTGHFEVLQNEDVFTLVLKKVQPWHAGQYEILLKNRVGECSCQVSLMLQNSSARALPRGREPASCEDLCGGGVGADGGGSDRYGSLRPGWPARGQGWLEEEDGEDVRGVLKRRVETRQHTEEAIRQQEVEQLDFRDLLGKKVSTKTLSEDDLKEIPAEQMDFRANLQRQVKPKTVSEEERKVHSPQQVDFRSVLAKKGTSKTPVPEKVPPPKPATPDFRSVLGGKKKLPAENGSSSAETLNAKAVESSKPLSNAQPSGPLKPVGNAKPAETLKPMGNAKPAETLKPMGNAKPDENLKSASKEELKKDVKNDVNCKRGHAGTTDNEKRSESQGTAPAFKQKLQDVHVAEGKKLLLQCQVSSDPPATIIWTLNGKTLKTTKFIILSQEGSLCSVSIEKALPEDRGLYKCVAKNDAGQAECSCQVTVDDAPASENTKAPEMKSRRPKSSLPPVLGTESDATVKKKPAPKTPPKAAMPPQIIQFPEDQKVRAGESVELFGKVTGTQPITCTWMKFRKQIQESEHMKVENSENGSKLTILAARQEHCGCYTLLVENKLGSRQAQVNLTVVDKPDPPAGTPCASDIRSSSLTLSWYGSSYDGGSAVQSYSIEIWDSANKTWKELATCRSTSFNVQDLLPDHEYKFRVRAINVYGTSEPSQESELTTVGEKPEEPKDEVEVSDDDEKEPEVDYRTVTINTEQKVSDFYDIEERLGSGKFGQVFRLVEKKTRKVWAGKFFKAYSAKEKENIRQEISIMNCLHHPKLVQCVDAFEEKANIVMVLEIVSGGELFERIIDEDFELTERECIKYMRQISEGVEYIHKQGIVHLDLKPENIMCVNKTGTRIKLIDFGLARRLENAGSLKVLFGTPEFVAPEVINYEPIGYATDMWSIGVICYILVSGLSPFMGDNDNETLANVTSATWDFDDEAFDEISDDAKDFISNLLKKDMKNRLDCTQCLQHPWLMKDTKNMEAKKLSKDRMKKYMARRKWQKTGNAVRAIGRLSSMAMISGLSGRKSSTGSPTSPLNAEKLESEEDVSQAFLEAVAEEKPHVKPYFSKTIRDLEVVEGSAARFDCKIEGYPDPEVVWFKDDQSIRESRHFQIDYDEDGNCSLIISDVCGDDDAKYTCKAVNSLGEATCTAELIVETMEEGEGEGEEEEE
Serine/threonine-protein kinase Nek6, sequence (Q9HC98 whole entry, canonical isoform): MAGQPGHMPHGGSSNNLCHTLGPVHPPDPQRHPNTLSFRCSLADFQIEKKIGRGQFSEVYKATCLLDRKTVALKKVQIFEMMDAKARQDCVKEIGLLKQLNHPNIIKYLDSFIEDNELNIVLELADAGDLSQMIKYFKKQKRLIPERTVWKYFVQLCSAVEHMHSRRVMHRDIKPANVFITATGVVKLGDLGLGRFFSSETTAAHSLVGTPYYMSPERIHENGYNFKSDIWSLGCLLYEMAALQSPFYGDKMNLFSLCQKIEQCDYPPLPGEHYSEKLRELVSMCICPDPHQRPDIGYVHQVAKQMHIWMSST
Serine/threonine-protein kinase N3 (Homo sapiens), sequence (Q6P5Z2 whole entry, looked up): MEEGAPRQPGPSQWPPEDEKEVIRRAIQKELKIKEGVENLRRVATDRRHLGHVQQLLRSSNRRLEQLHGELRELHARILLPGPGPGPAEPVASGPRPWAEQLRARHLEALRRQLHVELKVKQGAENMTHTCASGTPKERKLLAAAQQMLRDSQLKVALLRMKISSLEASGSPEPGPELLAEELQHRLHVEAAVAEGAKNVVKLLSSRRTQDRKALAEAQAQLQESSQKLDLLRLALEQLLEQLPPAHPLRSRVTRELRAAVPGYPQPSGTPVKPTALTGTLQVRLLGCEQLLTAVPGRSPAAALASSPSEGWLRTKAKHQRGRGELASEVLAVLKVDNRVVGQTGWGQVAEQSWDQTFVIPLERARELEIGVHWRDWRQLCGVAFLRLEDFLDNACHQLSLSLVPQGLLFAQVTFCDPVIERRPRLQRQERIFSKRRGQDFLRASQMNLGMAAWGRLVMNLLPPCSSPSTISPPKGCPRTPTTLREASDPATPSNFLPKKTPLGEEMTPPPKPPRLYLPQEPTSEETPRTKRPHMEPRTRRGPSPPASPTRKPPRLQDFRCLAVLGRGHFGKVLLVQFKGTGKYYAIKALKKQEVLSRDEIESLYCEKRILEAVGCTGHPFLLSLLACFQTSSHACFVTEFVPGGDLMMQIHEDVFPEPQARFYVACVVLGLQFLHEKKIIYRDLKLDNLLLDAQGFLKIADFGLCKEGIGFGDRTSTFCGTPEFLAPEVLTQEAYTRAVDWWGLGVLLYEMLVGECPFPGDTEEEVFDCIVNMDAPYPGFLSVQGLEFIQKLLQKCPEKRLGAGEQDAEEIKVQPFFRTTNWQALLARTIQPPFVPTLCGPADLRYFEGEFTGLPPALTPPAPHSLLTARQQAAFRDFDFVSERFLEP
Tyrosine-protein kinase ABL2 (Homo sapiens), sequence (P42684 whole entry): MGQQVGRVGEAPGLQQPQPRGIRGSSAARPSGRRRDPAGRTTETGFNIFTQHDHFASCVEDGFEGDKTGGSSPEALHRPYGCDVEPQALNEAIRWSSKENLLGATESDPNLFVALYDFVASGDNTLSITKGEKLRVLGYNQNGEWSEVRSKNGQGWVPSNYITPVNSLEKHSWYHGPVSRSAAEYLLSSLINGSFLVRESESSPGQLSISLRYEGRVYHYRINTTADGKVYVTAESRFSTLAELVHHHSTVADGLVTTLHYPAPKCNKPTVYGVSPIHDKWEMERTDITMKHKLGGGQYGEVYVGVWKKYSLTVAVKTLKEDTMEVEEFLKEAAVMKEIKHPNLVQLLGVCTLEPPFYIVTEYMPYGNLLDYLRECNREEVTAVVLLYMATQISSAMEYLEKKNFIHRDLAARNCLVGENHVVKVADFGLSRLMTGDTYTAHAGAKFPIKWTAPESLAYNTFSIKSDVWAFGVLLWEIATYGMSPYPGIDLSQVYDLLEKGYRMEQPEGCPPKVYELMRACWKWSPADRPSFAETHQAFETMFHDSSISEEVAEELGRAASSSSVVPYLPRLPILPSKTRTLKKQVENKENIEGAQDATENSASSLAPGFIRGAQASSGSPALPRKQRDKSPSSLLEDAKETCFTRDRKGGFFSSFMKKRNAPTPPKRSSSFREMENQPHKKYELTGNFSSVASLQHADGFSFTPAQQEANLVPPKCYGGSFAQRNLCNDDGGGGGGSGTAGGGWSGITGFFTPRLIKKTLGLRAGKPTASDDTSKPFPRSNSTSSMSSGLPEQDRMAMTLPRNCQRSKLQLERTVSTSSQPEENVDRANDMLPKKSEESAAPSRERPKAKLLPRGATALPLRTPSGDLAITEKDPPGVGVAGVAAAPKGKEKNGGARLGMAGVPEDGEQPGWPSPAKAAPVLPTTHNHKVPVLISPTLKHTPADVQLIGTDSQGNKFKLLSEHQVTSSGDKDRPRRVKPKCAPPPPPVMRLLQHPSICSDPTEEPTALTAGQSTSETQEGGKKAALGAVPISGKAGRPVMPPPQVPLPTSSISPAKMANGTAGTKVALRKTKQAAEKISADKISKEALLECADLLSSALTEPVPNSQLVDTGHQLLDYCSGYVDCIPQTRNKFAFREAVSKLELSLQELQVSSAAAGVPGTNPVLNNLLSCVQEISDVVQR
Calcium/calmodulin-dependent protein kinase type 1D (Homo sapiens), sequence (Q8IU85 whole entry, looked up): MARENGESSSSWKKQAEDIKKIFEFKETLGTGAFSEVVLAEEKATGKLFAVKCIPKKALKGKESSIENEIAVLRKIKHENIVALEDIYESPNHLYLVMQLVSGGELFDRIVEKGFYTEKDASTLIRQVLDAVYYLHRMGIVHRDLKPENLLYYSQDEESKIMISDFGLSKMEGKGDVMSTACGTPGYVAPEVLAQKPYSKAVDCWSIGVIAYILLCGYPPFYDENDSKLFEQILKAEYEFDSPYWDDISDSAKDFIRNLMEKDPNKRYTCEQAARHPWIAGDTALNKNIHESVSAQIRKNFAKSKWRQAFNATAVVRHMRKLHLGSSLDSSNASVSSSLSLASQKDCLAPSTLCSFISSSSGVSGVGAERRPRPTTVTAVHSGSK

With `C(=C\c1ccccc1)/C[N+]12CN3CN(CN(C3)C1)C2` the inhibition [1] was “Active”, the inhibition [2] was “inactive” and the inhibition [3] was “inactive”. The Activity [4] was 93.5 to 96.7%, the Activity [5] was 98.4 to 98.8% and the Activity [6] was 92.2 to 94.4%. It also gave an Activity [7] of 94.5 to 96.6%, an Activity [8] of 94 to 95.2% and an Activity [9] of 96.3 to 96.8%. The Activity [10] was 91 to 92.4% and the Activity [11] was 93.4 to 94.1%.

In the case of `ClC/C=C/C[N+]12CN3CN(CN(C3)C1)C2`, the Activity [12] is reported as 90.6 to 94.8%, the Activity [13] is reported as 83.7 to 87.4% and the Activity [14] is reported as 119 to 135%. It also gave an Activity [15] of 93.1 to 94%, an Activity [16] of 92.5 to 94.8% and an Activity [17] of 90.5 to 94.9%. The Activity [18] was 84.1 to 87.7%, the Activity [19] was 95.3 to 95.6% and the Activity [20] was 92.2 to 94.9%. The Activity [21] was 111 to 115%, the Activity [22] was 92.3 to 92.9% and the Activity [23] was 96.4 to 96.7%. It also gave an Activity [24] of 93.1 to 95.2%.
